Experiments:
[1] = Combing force for dry hair, aqueous/ethanol leave-on treatment; conditions: Table 2/FIG. 2; physically damaged virgin hair; aqueous/ethanol leave-on formulation, 2.5% total conditioning agent
Text: (§1) This double combing apparatus is attached to an Instron Model 5564. The switch is combed 5 times with a fine-tooth comb and hanged onto the Instron load cell. Then, the hair switch is placed in the double comb apparatus. The Instron pulls the hair vertically at a rate of 10 mm/min until the hair switch clears the final comb. The peak force as the switch passes through the top comb is reported.

[2] = Combing force for dry hair, aqueous/ethanol treatment; conditions: Table 1/FIG. 1; moderately oxidatively-damaged hair; aqueous/ethanol formulation, 2.5% total conditioning agent; peak force
Text: A moderately oxidatively-damaged hair switch or physically damaged virgin hair switch (with weight of 4 gram and length of 8 inches) is placed in an apparatus containing two combs separated by a vertical distance of 6 inches. This double combing apparatus is attached to an Instron Model 5564. The switch is combed 5 times with a fine-tooth comb and hanged onto the Instron load cell. Then, the hair switch is placed in the double comb apparatus. The Instron pulls the hair vertically at a rate of 10 mm/min until the hair switch clears the final comb. The peak force as the switch passes through the top comb is reported. […] EtOH/H2O Leave-on Treatments Single material mixtures: 500 mg of a lipid or a lipid enhancing agent is weighed into a 20 mL vial. 19.5 g of 50/50(v/v) ethanol water mixture is then added to the vial and capped. The mixture is then agitated for 30 seconds. Shampoo Washing Protocol: An amount of 0.10 g of clarifying shampoo per gram of hair is spread via a syringe onto separate hair switch. Each application consists of adding shampoo to the hair, milking for 30 seconds followed by rinsing for 30 seconds. Shampoo is then reapplied (0.[…]), milked for 30 seconds and rinsed for 30 seconds. Leave-on Treatments with Aqueous/Ethanolic Lipid Compositions a. […] The combing force is measured for each switch and an average for the three switches is calculated. […]

[3] = Log P (octanol-water partition coefficient)
Text: “Log P” means octanol-water partition coefficient and is a physical property that describes a chemical's lipophilic and hydrophophilic characteristics. Log P is the logarithm of the ratio of a chemical's concentration in the octanol phase to its concentration in the aqueous phase of a two-phase system at equilibrium. The partition coefficient is a ratio of concentrations of un-ionized compound between the two solutions. Log P=Log 10 (partition coefficient). Partition coefficient=[organic]/[aqueous], where [organic] is the concentration of the compound of interest in the organic solvent (e.g., octanol), and [aqueous] is the concentration of the compound of interest in the water phase.

[4] = Combing force after leave-on hair treatment using neat material; conditions: 0.4 ml neat material on 4 g switch, average of three switches; for Combing force, 1 Wash (gf): after 1 clarifying shampoo wash; for Combing force, 5 Washes (gf): after 5 clarifying shampoo washes
Text: as §1
The treatment is repeated to two additional switches. The treated hair switches are allowed to rest for 24 hours under controlled temperature and relative humidity conditions (27° C. and 50% RH). After this time period, each hair switch is washed with a clarifying shampoo (see shampoo washing protocol below) and allowed to air dry for 24 hours under controlled temperature and relative humidity conditions (27° C. and 50% RH). The combing force is measured for each switch and an average for the three switches is calculated. […] Linoleic acid • b.

Molecule	logP ([3]; octanol/water)	Combing Force (gf) [1] [gf]	further results
CCCCCCCC/C=C\CCCCCCCC(=O)OCC(O)CO (stereo not drawn) [Glyceryl alpha-monooleate]	6.3	268	Combing Force (gf) [2]: 157 gf
CCCCCCCC/C=C\CCCCCCCC(=O)O [Oleic acid]	7		Combing force, 1 Wash (gf) [4]: 24 gf; Combing force, 5 Washes (gf) [4]: 58 gf; Combing Force (gf) [2]: 161 gf
CCCCCCCC/C=C\CCCCCCCCCCCC(=O)O [Erucic acid, reference compound]	9		
CCCCCCCCCCCCCCCCCC(=O)O [Stearic Acid, reference compound]	8		
Propyleneglycol monooleate [reference compound]			logP ([3]; Table 3): 7.5
CCCCCCCC/C=C\CCCCCCCC(=O)OCCO [Ethyleneglycol monooleate]	6.9		
CCCCC/C=C\C/C=C\CCCCCCCC(=O)O [Linoleic Acid, reference compound]	6.4		Combing force, 1 Wash (gf) [4]: 27 gf; Combing force, 5 Washes (gf) [4]: 96 gf

Second part, led by results:

logP ([3]; octanol/water)	Molecule	Combing Force (gf) [1] [gf]	further results
8	CCCCCCCC/C=C\CCCCCCCC(=O)OC [Methyl Oleate, reference compound]		
7	CCCCCCCC/C=C\CCCCCCCCO [Oleyl Alcohol]	246	
6.6	CCCCCC/C=C\CCCCCCCC(=O)O [Palmitoleic Acid]	76	

— US11986542B2, “Composition for enhancing hair fiber properties” (The Procter & Gamble Company, priority 2016, dated 2024)
